Species: Rattus norvegicus
Assay: Open TG-GATES - Regimen: Daily Repeat
Type: toxicity, organism-based, Sprague-Dawley
Design: regimen Daily Repeat, gender Male, age 6 weeks
Settings: in vivo, po, 30 mg/kg, route gavage, dose level Low; for APTT / Bas / Eos / Fbg / Hb / Ht / Lym / MCH / MCHC / MCV / Mono / Neu / PT / Plat / RBC / Ret / WBC: tissue Blood; for KIDNEY_L / KIDNEY_R / KIDNEY_TOTAL: tissue Kidney; for LIVER: tissue Liver; for A/G / ALP / ALT / AST / BUN / CRE / Ca / Cl / DBIL / GLC / IP / K / LDH / Na / PL / RALB / TBIL / TC / TG / TP / gamma-GTP: tissue Plasma

CCc1oc2ccccc2c1C(=O)c1cc(I)c(O)c(I)c1 [BENZIODARONE]
TERMINAL_BW (72 h, time 3 day): 242 g | APTT (72 h, time 3 day): 17.5 s | Bas (72 h, time 3 day): 0% | Eos (72 h, time 3 day): 1% | Fbg (72 h, time 3 day): 216.8 mg/dL | Hb (72 h, time 3 day): 13.8 g/dL | Ht (72 h, time 3 day): 40.8% | Lym (72 h, time 3 day): 79.4% | MCH (72 h, time 3 day): 21.9 pg | MCHC (72 h, time 3 day): 33.8% | MCV (72 h, time 3 day): 64.7 fL | Mono (72 h, time 3 day): 6.4% | Neu (72 h, time 3 day): 13.2% | PT (72 h, time 3 day): 11.7 s | Plat (72 h, time 3 day): 115.3 x10_4/uL | RBC (72 h, time 3 day): 629.4 x10_4/ul | Ret (72 h, time 3 day): 6.5% | WBC (72 h, time 3 day): 104.5 x10_2/uL | KIDNEY_L (72 h, time 3 day): 1.1 g | KIDNEY_R (72 h, time 3 day): 1.1 g | KIDNEY_TOTAL (72 h, time 3 day): 2.2 g | LIVER (72 h, time 3 day): 12.7 g | A/G (72 h, time 3 day): 1.8 | ALP (72 h, time 3 day): 1087.2 IU/L | ALT (72 h, time 3 day): 42.6 IU/L | AST (72 h, time 3 day): 67.4 IU/L | BUN (72 h, time 3 day): 16.8 mg/dL | CRE (72 h, time 3 day): 0.5 mg/dL | Ca (72 h, time 3 day): 10.7 mg/dL | Cl (72 h, time 3 day): 104 meq/L | DBIL (72 h, time 3 day): 0.016 mg/dL | GLC (72 h, time 3 day): 191.2 mg/dL | IP (72 h, time 3 day): 7.8 mg/dL | K (72 h, time 3 day): 4.5 meq/L | LDH (72 h, time 3 day): 103.8 IU/L | Na (72 h, time 3 day): 141 meq/L | PL (72 h, time 3 day): 155.4 mg/dL | RALB (72 h, time 3 day): 3.6 g/dL | TBIL (72 h, time 3 day): 0.3 mg/dL | TC (72 h, time 3 day): 79.4 mg/dL | TG (72 h, time 3 day): 74.4 mg/dL | TP (72 h, time 3 day): 5.7 g/dL | gamma-GTP (72 h, time 3 day): 1.6 IU/L | TERMINAL_BW ([…], time 7 day): 274.9 g | TERMINAL_BW ([…], time 14 day): 323 g | TERMINAL_BW ([…], time 28 day): 399.3 g | APTT ([…], time 7 day): 17.5 s | Bas ([…], time 7 day): 0% | Eos ([…], time 7 day): 1% | Fbg ([…], time 7 day): 221.6 mg/dL | Hb ([…], time 7 day): 14.2 g/dL | Ht ([…], time 7 day): 41.8% | Lym ([…], time 7 day): 84.6% | MCH ([…], time 7 day): 21.5 pg | MCHC ([…], time 7 day): 34% | MCV ([…], time 7 day): 63.2 fL | Mono ([…], time 7 day): 4.6% | Neu ([…], time 7 day): 10% | PT ([…], time 7 day): 11.9 s | Plat ([…], time 7 day): 117.9 x10_4/uL | RBC ([…], time 7 day): 661.6 x10_4/ul | Ret ([…], time 7 day): 4.7% | WBC ([…], time 7 day): 111.9 x10_2/uL | APTT ([…], time 14 day): 18.1 s | Bas ([…], time 14 day): 0% | Eos ([…], time 14 day): 1% | Fbg ([…], time 14 day): 223.6 mg/dL | Hb ([…], time 14 day): 14.6 g/dL | Ht ([…], time 14 day): 43.4% | Lym ([…], time 14 day): 82.8% | MCH ([…], time 14 day): 20.5 pg | MCHC ([…], time 14 day): 33.6% | MCV ([…], time 14 day): 61.1 fL | Mono ([…], time 14 day): 5.2% | Neu ([…], time 14 day): 11.2% | PT ([…], time 14 day): 11.8 s | Plat ([…], time 14 day): 117.5 x10_4/uL | RBC ([…], time 14 day): 710 x10_4/ul | Ret ([…], time 14 day): 2.5% | WBC ([…], time 14 day): 109.1 x10_2/uL | APTT ([…], time 28 day): 18.9 s | Bas ([…], time 28 day): 0% | Eos ([…], time 28 day): 1.6% | Fbg ([…], time 28 day): 231.2 mg/dL | Hb ([…], time 28 day): 15.2 g/dL | Ht ([…], time 28 day): 45.4% | Lym ([…], time 28 day): 83.2% | MCH ([…], time 28 day): 19 pg | MCHC ([…], time 28 day): 33.6% | MCV ([…], time 28 day): 56.7 fL | Mono ([…], time 28 day): 4.8% | Neu ([…], time 28 day): 11% | PT ([…], time 28 day): 12 s | Plat ([…], time 28 day): 124.3 x10_4/uL | RBC ([…], time 28 day): 799.8 x10_4/ul | Ret ([…], time 28 day): 3% | WBC ([…], time 28 day): 128.8 x10_2/uL | KIDNEY_L ([…], time 7 day): 1.2 g | KIDNEY_R ([…], time 7 day): 1.2 g | KIDNEY_TOTAL ([…], time 7 day): 2.4 g | KIDNEY_L ([…], time 14 day): 1.3 g | KIDNEY_R ([…], time 14 day): 1.3 g | KIDNEY_TOTAL ([…], time 14 day): 2.5 g | KIDNEY_L ([…], time 28 day): 1.4 g | KIDNEY_R ([…], time 28 day): 1.4 g | KIDNEY_TOTAL ([…], time 28 day): 2.9 g | LIVER ([…], time 7 day): 14.7 g | LIVER ([…], time 14 day): 15.7 g | LIVER ([…], time 28 day): 18.7 g | A/G ([…], time 7 day): 1.7 | ALP ([…], time 7 day): 918 IU/L | ALT ([…], time 7 day): 32.6 IU/L | AST ([…], time 7 day): 63.4 IU/L | BUN ([…], time 7 day): 18 mg/dL | CRE ([…], time 7 day): 0.6 mg/dL | Ca ([…], time 7 day): 10.8 mg/dL | Cl ([…], time 7 day): 103.4 meq/L | DBIL ([…], time 7 day): 0.018 mg/dL | GLC ([…], time 7 day): 191.8 mg/dL | IP ([…], time 7 day): 7.3 mg/dL | K ([…], time 7 day): 4.6 meq/L | LDH ([…], time 7 day): 101.6 IU/L | Na ([…], time 7 day): 139.6 meq/L | PL ([…], time 7 day): 153.2 mg/dL | RALB ([…], time 7 day): 3.7 g/dL | TBIL ([…], time 7 day): 0.3 mg/dL | TC ([…], time 7 day): 73.6 mg/dL | TG ([…], time 7 day): 110.6 mg/dL | TP ([…], time 7 day): 5.9 g/dL | gamma-GTP ([…], time 7 day): 2 IU/L | A/G ([…], time 14 day): 1.7 | ALP ([…], time 14 day): 914 IU/L | ALT ([…], time 14 day): 31.8 IU/L | AST ([…], time 14 day): 63.2 IU/L | BUN ([…], time 14 day): 19.6 mg/dL | CRE ([…], time 14 day): 0.5 mg/dL | Ca ([…], time 14 day): 10.3 mg/dL | Cl ([…], time 14 day): 105.2 meq/L | DBIL ([…], time 14 day): 0.008 mg/dL | GLC ([…], time 14 day): 200.4 mg/dL | IP ([…], time 14 day): 6.7 mg/dL | K ([…], time 14 day): 4.6 meq/L | LDH ([…], time 14 day): 109.6 IU/L | Na ([…], time 14 day): 141.2 meq/L | PL ([…], time 14 day): 152.8 mg/dL | RALB ([…], time 14 day): 3.9 g/dL | TBIL ([…], time 14 day): 0.3 mg/dL | TC ([…], time 14 day): 71.6 mg/dL | TG ([…], time 14 day): 159.4 mg/dL | TP ([…], time 14 day): 6.2 g/dL | gamma-GTP ([…], time 14 day): 1.8 IU/L | A/G ([…], time 28 day): 1.8 | ALP ([…], time 28 day): 629.8 IU/L | ALT ([…], time 28 day): 36.4 IU/L | AST ([…], time 28 day): 63.8 IU/L | BUN ([…], time 28 day): 20.2 mg/dL | CRE ([…], time 28 day): 0.7 mg/dL | Ca ([…], time 28 day): 10.9 mg/dL | Cl ([…], time 28 day): 104.2 meq/L | DBIL ([…], time 28 day): 0.01 mg/dL | GLC ([…], time 28 day): 194.4 mg/dL | IP ([…], time 28 day): 6.4 mg/dL | K ([…], time 28 day): 4.4 meq/L | LDH ([…], time 28 day): 121.4 IU/L | Na ([…], time 28 day): 139.6 meq/L | PL ([…], time 28 day): 156.6 mg/dL | RALB ([…], time 28 day): 4 g/dL | TBIL ([…], time 28 day): 0.3 mg/dL | TC ([…], time 28 day): 78.4 mg/dL | TG ([…], time 28 day): 123.8 mg/dL | TP ([…], time 28 day): 6.3 g/dL | gamma-GTP ([…], time 28 day): 1.8 IU/L
